Data from patent EP4567037A1, “USE OF PYRROLOPYRIMIDINE COMPOUND IN TREATMENT OF ACUTE GRAFT VERSUS HOST DISEASE” (Chia Tai Tianqing Pharmaceutical Group Co., Ltd., priority 2022, dated 2024).

Tested on: glucocorticoid-resistant acute graft-versus-host disease
Experiment: Clinical study of tablets of the compound of formula II in subjects with glucocorticoid-resistant acute graft-versus-host disease
Assay type: in vivo
Description: This study was conducted to evaluate the safety and preliminary efficacy of the compound of formula II for treating acute graft-versus-host disease in a subject resistant to glucocorticoid.
Administration method: orally administered twice a day at fasting, at a dose of 10 mg or 15 mg each time, with 28 consecutive days of administration as one treatment cycle.
Drug: the compound of formula I in 5 mg or 20 mg tablets, with the compound of formula I being shown as its stereoisomer, a compound of formula II: [drawing 4]
• 1) Aged 12-75 years (inclusive), with no gender restriction; • 2) Previously received allogeneic hematopoietic stem cell transplantation (including non-myeloablative, myeloablative, and reduced-intensity conditioning transplantation of bone marrow, peripheral blood stem cells, and umbilical cord blood); • 3) Clinically diagnosed with aGVHD of grade II to grade IV according to MAGIC guidelines; • Resistance to glucocorticoid therapy *, defined as resistance to high-dose systemic glucocorticoid (methylprednisolone at a dose of 1-2 mg/kg/day or prednisone at an equivalent dose of 1.25-2.5 mg/kg/day), taken alone or taken in combination with a calcineurin inhibitor (CNI); • * Subjects meeting any one of the following conditions can be defined as resistant to conventional glucocorticoid therapy, i.e., therapy with methylprednisolone at a dose of ≥ 1 mg/kg/day or therapy with another type of glucocorticoid at an equivalent dose: (1) progression of aGVHD after the glucocorticoid therapy has been administered for 3 days, (2) no amelioration in aGVHD after the glucocorticoid therapy has been administered for 5 days, and (3) incomplete response of aGVHD after the glucocorticoid therapy has been administered for 14 days; • 4) Within 48 h before the start of therapy, neutrophil count (ANC) > 1 × 10^9/L, and platelet count (PLT) ≥ 20×10^9/L; and • 5) Subjects with voluntary participation, signed informed consent, and good compliance.
During the study, the investigator scored aGVHD treatment responses according to Harris 2016 response evaluation criteria.
The evaluation index may be selected from the group consisting of: • Objective response rate (ORR): refers to the percentage of subjects in complete response (CR) or very good partial response (VGPR) or partial response (PR). • Complete response (CR) rate: refers to the percentage of subjects in complete response (CR). • Overall survival (OS): refers to the time from the start of the first administration to death due to any cause. • Duration of response (DOR): for subjects in complete response (CR) or very good partial response (VGPR) or partial response (PR) on day 28, DOR is defined as the time from the date of the first recorded response to the date of the first recorded disease progression or the start of any new systemic therapy for aGVHD. • Event-free survival (EFS): defined as the time from the date of the first administration to the date of relapse/progression of hematologic disease, transplantation failure, or death due to any cause. • Non-relapse mortality (NRM): defined as the time from the date of the first administration to the date of death not related to relapse/progression of hematologic disease. • Incidence of malignancy relapse/progression (MR): defined as the time from the date of the first administration to the date of relapse/progression of hematologic disease.
Twelve evaluable subjects orally took tablets of the compound of formula II twice a day at fasting, at a dose of 10 mg each time, with 28 days as one administration cycle. The ORR of the 12 subjects on D28 was 83.3% (10/12), with 8 achieving CR and 2 achieving VGPR (very good partial response). […] Evaluation of efficacy in patients

[1] = D28, of 12 evaluable subjects, 10 mg twice a day

For N#CC[C@H](C1CCCC1)n1cc(-c2ncnc3[nH]ccc23)c(N)n1 [compound of formula II], the Tolerability and safety (10 mg twice a day, oral tablets, overall adverse events being controllable) was “good tolerability and safety”, the “ORR on D28” value (12 evaluable subjects, oral, twice a day at fasting, 10 mg each time, 28-day cycle, Harris 2016 response criteria) was 83.3% and the “ORR on D28 (responders/evaluable subjects)” value (12 evaluable subjects, oral, twice a day, 10 mg each time, 28-day cycle) was 10/12. The “Number of subjects achieving CR” value [1] was 8, the “Number of subjects achieving VGPR (very good partial response)” value [1] was 2 and the “Number of patients achieving ORR on D28” value (subgroup aGVHD Grade II (6 patients)) was 6. The “Number of patients achieving ORR on D28” value (subgroup aGVHD Grade III (6 patients)) was 4, the “Number of patients achieving ORR on D28” value (subgroup organ affected by aGVHD: Liver (5 patients)) was 3 and the “Number of patients achieving ORR on D28” value (subgroup organ affected by aGVHD: Lower digestive tract (5 patients)) was 4. The “Number of patients achieving ORR on D28” value (subgroup organ affected by aGVHD: Skin (8 patients)) was 8, the “Number of patients achieving ORR on D28” value (subgroup organ affected by aGVHD: Upper digestive tract (2 patients)) was 2 and the “Number of patients achieving ORR on D28” value (subgroup previous therapy Hormone + CD25 monoclonal antibody (1 patient)) was 0. The “Number of patients achieving ORR on D28” value (subgroup previous therapy Hormone + CNI + MMF (6 patients)) was 5, the “Number of patients achieving ORR on D28” value (subgroup previous therapy Hormone + MTX + CNI + MMF (1 patient)) was 1 and the “Number of patients achieving ORR on D28” value (subgroup previous therapy Hormone ± CNI (4 patients)) was 4.
